{
  "source": "paper PMC6382874",
  "about": "“Succinylation-dependent mitochondrial translocation of PKM2 promotes cell survival in response to nutritional stress” (Cell Death & Disease, 2019)",
  "key": {"[1]": {"system": "outer mitochondrial membrane permeability", "assay": "NADH oxidation assay in mitochondria isolated from HCT116 cells", "type": "cell-based, human", "settings": "20 µM, 8 h", "procedure": "Fig. 6 Compound 8 blocks PKM2 mitochondrial translocation under nutritional stress and inhibits tumor growth in vivo. a Compound 8 blocks glucose starvation induced PKM2 mitochondrial translocation. Isolation of mitochondria and immunoblot of PKM2, tubulin and Tom 40 were carried out with or without compound 8 treatment. b Compound 8 disrupts interaction of PKM2 and VDAC3. HCT116 cells were transfected with HA-tagged PKM2, cells were harvested and subjected to stag pull down after 8 h 20 µM compound 8 treatment. c Compound 8 induces VDAC3 for degradation. cells were harvested and evaluated VDAC3 protein levels after 8 h 10 or 20 µM compound 8 treatment. d, e Compound 8 caused a decrease in the rate of NADH oxidation. After 8 h of treatment with 20 µM compound 8, HCT116 cells mitochondria were isolated for NADH oxidation assays. NAD/NADH ratios in HCT116 cell lysates were evaluated by LC–MS. f Compound 8 inhibited ATP production in HCT116 cells. g The tumor volume (n = 7) of HCT116 xenografts from mice with intraperitoneal injection of compound 8 and vehicle control […]\nNADH oxidation in the mitochondria was measured by resuspending mitochondria isolated from HCT116 cells after knockdown or overexpression of PKM2, K433E, K433R, PKM1, or treatment with 20 μM compound 8 for 8 h in 25 mM NADH. Absorbance was monitored at λ = 340 nm. […]"}, "PKM2-VDAC3 interaction": {"biological_target": "T1, PKM2-VDAC3 interaction (Homo sapiens, UniProt P14618)", "T1 construct": "expressed in transfected cells; host or cells: HCT116", "T1 sequence (P14618 whole entry)": "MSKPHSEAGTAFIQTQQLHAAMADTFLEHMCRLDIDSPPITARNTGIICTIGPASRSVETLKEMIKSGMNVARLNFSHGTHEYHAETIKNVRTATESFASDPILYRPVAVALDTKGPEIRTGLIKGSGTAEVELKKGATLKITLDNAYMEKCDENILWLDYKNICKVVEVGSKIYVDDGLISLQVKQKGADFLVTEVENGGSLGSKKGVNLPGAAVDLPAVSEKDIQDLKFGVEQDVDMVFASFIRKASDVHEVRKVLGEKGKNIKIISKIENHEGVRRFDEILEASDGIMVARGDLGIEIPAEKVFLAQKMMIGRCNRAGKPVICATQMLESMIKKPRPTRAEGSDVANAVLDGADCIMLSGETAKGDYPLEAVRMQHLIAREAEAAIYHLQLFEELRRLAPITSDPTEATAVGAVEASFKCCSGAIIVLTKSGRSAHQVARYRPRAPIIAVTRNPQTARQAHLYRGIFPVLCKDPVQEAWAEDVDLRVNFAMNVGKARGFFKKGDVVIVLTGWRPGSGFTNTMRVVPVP", "assay": "PKM2-VDAC3 interaction, stag pull down in HCT116 cells", "type": "cell-based", "settings": "20 µM, 8 h", "procedure": "Fig. 6 Compound 8 blocks PKM2 mitochondrial translocation under nutritional stress and inhibits tumor growth in vivo. a Compound 8 blocks glucose starvation induced PKM2 mitochondrial translocation. Isolation of mitochondria and immunoblot of PKM2, tubulin and Tom 40 were carried out with or without compound 8 treatment. b Compound 8 disrupts interaction of PKM2 and VDAC3. HCT116 cells were transfected with HA-tagged PKM2, cells were harvested and subjected to stag pull down after 8 h 20 µM compound 8 treatment. c Compound 8 induces VDAC3 for degradation. cells were harvested and evaluated VDAC3 protein levels after 8 h 10 or 20 µM compound 8 treatment. d, e Compound 8 caused a decrease in the rate of NADH oxidation. After 8 h of treatment with 20 µM compound 8, HCT116 cells mitochondria were isolated for NADH oxidation assays. NAD/NADH ratios in HCT116 cell lysates were evaluated by LC–MS. f Compound 8 inhibited ATP production in HCT116 cells. g The tumor volume (n = 7) of HCT116 xenografts from mice with intraperitoneal injection of compound 8 and vehicle control\nAbout 2.5 mg whole cellular extracts were prepared in 700 μl RIPA buffer (50 mM Tris-HCl, pH 8.0, 150 mM NaCl, 1.5 mM MgCl2, 0.1% sodium dodecyl sulfate (SDS), 0.5% deoxycholate, 0.5% NP-40, 1 mM phenylmethylsulfonyl fluoride (PMSF), 1× protease inhibitor cocktail (Roche)). […]"}, "PKM1": {"biological_target": "T2, PKM1 (Homo sapiens, UniProt P14618)", "T2 construct": "His-tag (N); made in house; host or cells: Escherichia coli BL21", "T2 sequence (P14618 1-531 isoform P14618-2)": "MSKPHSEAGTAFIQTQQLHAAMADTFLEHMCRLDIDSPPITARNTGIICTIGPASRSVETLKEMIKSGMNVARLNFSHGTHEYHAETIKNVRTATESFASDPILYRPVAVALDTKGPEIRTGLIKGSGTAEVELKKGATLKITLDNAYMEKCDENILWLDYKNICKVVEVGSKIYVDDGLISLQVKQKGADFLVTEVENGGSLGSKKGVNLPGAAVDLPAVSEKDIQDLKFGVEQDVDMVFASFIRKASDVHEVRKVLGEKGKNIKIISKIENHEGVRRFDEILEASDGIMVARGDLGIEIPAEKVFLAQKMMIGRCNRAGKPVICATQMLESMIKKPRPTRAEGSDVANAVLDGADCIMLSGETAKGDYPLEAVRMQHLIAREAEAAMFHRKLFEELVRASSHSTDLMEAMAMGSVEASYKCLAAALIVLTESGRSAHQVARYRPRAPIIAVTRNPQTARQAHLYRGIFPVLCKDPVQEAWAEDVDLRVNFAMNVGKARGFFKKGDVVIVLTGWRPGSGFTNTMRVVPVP", "assay": "fluorescent PK-LDH coupled assay, PKM1", "type": "biochemical", "settings": "recombinant enzyme, PK-LDH coupled assay; read-out: IC50 (PKM1)", "procedure": "Human cDNA for PKM2, PKM1, and VDAC3 were separately cloned into a pET28a (+) and pGEX-4T-1 vector with an N-terminal His-tag and N-terminal GST-tag and purified from the Escherichia coli strain BL21 (Invitrogen) using Ni–agarose beads and GST agarose beads (Qiagen) as described previously. PKL was purchased from Sino Biological Inc. in China.\nPyruvate kinase activity was measured with a fluorescent pyruvate kinase–lactate dehydrogenase coupled assay as described previously. All compounds were tested in a kinetic mode by coupling the generation of pyruvate by pyruvate kinase to the depletion of NADH through lactate dehydrogenase. For PKM2, 40 μL of buffer (50 mM Tris–HCl, pH 7.5, 10 mM KCl, 5 mM MgCl2), 1 μL of compound and 5 μL of enzyme solution were dispensed into Corning black solid 96-well plates and incubated for 15 min. Totally, 55 μL of substrate mix (final concentration, 0.5 mM PEP, 4.0 mM ADP, 0.12 mM NADH, 0.25 mM FBP, and 1 unit LDH) were then added, and the plates were placed in a FlexStation3 (Molecular Devices), followed by determination of NADH fluorescence at 30 s exposure intervals for 3–6 min. Data were collected on a FlexStation3."}},
  "data": [
    {"smiles": "CCCN(CCC)P(N)(=O)OCC1=CC(=O)c2ccccc2C1=O", "note": "(stereo not drawn) [Compound 8]", "values": [
      {"measurement": "rate of NADH oxidation in purified mitochondria", "setting": "[1]", "value": "reduced"},
      {"measurement": "interaction of PKM2 with VDAC3", "setting": "PKM2-VDAC3 interaction", "value": "abolished its interaction with VDAC3"},
      {"measurement": "IC50", "setting": "PKM1", "value": "10.5 ± 1.52", "unit": "µM"}
    ]}
  ]
}
